# Experimental data taken from US20240238314A1, “TREATMENT OF ESSENTIAL TREMOR” (Sage Therapeutics, Inc., priority 2021, published 2024).
# Columns and labels:
# [1] = test system: individuals with essential tremor; experiment: Phase 2 study, Compound 1 60 mg once daily for 28 days: TETRAS performance subscale part 4/6/7/8 total score; format: in vivo, human; details: Full Analysis Set
# Procedure: 4) Upper limb tremor: Tremor is assessed during three maneuvers: forward horizontal reach posture, lateral “wing beating” posture and finger-nose-finger testing. Each upper limb is assessed and scored individually. The forward horizontal reach posture is held for 5 seconds. The lateral wing beating posture is held for 20 seconds. The finger-nose-finger movement is executed three times. Amplitude assessment should be estimated using the maximally displaced point of the hand at the point of greatest displacement along any single plane. For example, the amplitude of a pure supination-pronation tremor, pivoting around the wrist would be assessed at either the thumb or fifth digit.
# The lines of the spiral should be approximately 1.3 cm (0.5 inch) apart. Then ask the subject to copy the spiral. Test and score each hand separately. Use a ballpoint pen. The pen should be held such that no part of the limb touches the table. Secure the paper on the table in a location that is suitable for the patient's style of drawing. Score the tremor in the spiral, not the movement of the limb. Each limb is assessed and scored individually. 0=normal. 1=slight: tremor barely visible. 2=mild: obvious tremor. 3=moderate: portions of figure not recognizable. 4=severe: figure not recognizable.
# 7) Handwriting: Have patient write the standard sentence “This is a sample of my best handwriting” using the dominant hand only. Patients must write cursively (i.e., no printing). They cannot hold or stabilize their hand with the other hand. Use a ballpoint pen. Secure the paper on the table in a location that is suitable for the patient's style of writing. Score the tremor in the writing, not the movement of the limb. 0=normal. 1=slight: untidy due to tremor that is barely visible. 2=mild: legible, but with considerable tremor. 3=moderate: some words illegible. 4=severe: completely illegible.
# 8) Dot approximation task: The examiner makes a dot or X and instructs the subject to hold the tip of the pen “as close as possible to the dot (or center of an X) without touching it, (ideally approximately 1 mm) for 10 seconds.” Each hand is scored separately. 0=no tremor. 1=tremor is barely visible. 1.5=tremor is visible, but less than 1 cm. 2=tremor is 1-<3 cm amplitude. 2.5=tremor is 3-<5 cm amplitude. 3=tremor is 5-<10 cm amplitude. 3.5=tremor is 10-<20 cm amplitude. 4=tremor is >20 cm amplitude.
# (§1) Participants were 18 to 80 years of age, inclusive, diagnosed of ET of at least 3 years duration with scores of at least 1.5 for each of the six items that comprised the combined total upper limb TETRAS (total performance subscale part 4) with the total score for the dominant upper limb (the sum of the 3 items for either the right or left upper limb, whichever is dominant) being at least 5.5, at both Screening and predose on Day 1.
# (§2) Participants were randomized to receive Compound 1 60 mg or placebo once daily in the morning on a 1:1 basis. If participants reported a TEAE considered by investigator to be related to Compound 1 and not tolerable, investigator might reduce the dose of Compound 1 from 60 mg in 15 mg decrements (i.e., 60 mg, to 45 mg, to 30 mg), as medically appropriate. If intolerable TEAEs persist at the 30 mg dose, Compound 1 was permanently stopped.
# (§3) This study included a Screening Period of up to 28 days, a 29-day treatment period consisting of 28 days of dosing with the end of treatment visit intended to be on Day 29 at trough, and a 14-day follow-up period relative to final dose. Study patients were not taking other medications for essential tremor during the 28-day treatment period.
# Similarly, an MMRM was be used for the analysis of the following variables: changes from baseline in TETRAS performance subscale part 4, 6, 7, and 8 combined score, and TETRAS ADL score. For each model, the comparison of interest was between Compound 1 tablets and matching placebo at the 15-day time point. […]
# [2] = test system: individuals with essential tremor; experiment: Phase 2 study, Compound 1 60 mg once daily for 28 days: TETRAS ADL total score; format: in vivo, human
# Description: As used herein, “The Essential Tremor Rating Assessment Scale (TETRAS) activities of daily living (ADL) subscale total score” refers to an assessment scale for essential tremor developed by The Tremor Research Group (Elble, R. J., J. Neurol. Neuromedicine 1(4):34-38 (2016); Elble, R. J. et. al., Mov. Disord. 27(12); 1567-1569 (2012)). The TETRAS ADL subscale includes 12 metrics or characteristics, wherein each metric or characteristic is scored 0, 1, 2, 3, or 4 based on the severity of the characteristic present in the subject. Scores for each of the 12 characteristics are then added to give a total score of no greater than 48. The 12 characteristics scored in the TETRAS ADL subscale total score include:
# as §1, §2, §3
# Similarly, an MMRM was be used for the analysis of the following variables: changes from baseline in TETRAS performance subscale part 4, 6, 7, and 8 combined score, and TETRAS ADL score. For each model, the comparison of interest was between Compound 1 tablets and matching placebo at the 15-day time point. Model-based point estimates (i.e., LS means), 95% confidence intervals, and p-values were reported.
# [3] = Baseline TETRAS ADL < 28, Day 29
# [4] = Baseline TETRAS ADL ≥ 28, Day 29
compound,measurement,setting,value
COC[C@@]1(O)CC[C@H]2[C@@H](CC[C@@H]3[C@@H]2CC[C@]2(C)[C@@H](C(=O)Cn4nnc(C)n4)CC[C@@H]32)C1 [Compound 1],LSMean difference vs placebo in change from baseline in TETRAS performance subscale part 4/6/7/8 total score,[1]; Day 8,−1.22
same,Model-based LSMean (SE) change from baseline in TETRAS performance subscale part 4/6/7/8 total score,[1]; Day 8,−2.84 (0.579)
same,LSMean difference vs placebo in change from baseline in TETRAS performance subscale part 4/6/7/8 total score,"[1]; Day 15, 5 hr postdose",−1.03
same,Model-based LSMean (SE) change from baseline in TETRAS performance subscale part 4/6/7/8 total score,"[1]; Day 15, 5 hr postdose",−4.59 (0.840)
same,LSMean difference vs placebo in change from baseline in TETRAS performance subscale part 4/6/7/8 total score,"[1]; Day 15, 8 hr postdose",−0.23
same,Model-based LSMean (SE) change from baseline in TETRAS performance subscale part 4/6/7/8 total score,"[1]; Day 15, 8 hr postdose",−3.75 (0.755)
same,LSMean difference vs placebo in change from baseline in TETRAS performance subscale part 4/6/7/8 total score,"[1]; Day 15, predose",−0.55
same,Model-based LSMean (SE) change from baseline in TETRAS performance subscale part 4/6/7/8 total score,"[1]; Day 15, predose",−2.63 (0.671)
same,LSMean difference vs placebo in change from baseline in TETRAS performance subscale part 4/6/7/8 total score,[1]; Day 22,−0.77
same,Model-based LSMean (SE) change from baseline in TETRAS performance subscale part 4/6/7/8 total score,[1]; Day 22,−2.93 (0.691)
same,LSMean difference vs placebo in change from baseline in TETRAS performance subscale part 4/6/7/8 total score,[1]; Day 29,"−0.59 (−2.45, 1.28)"
same,Model-based LSMean (SE) change from baseline in TETRAS performance subscale part 4/6/7/8 total score,[1]; Day 29,−2.81 (0.699)
same,LSMean difference vs placebo in change from baseline in TETRAS performance subscale part 4/6/7/8 total score,"[1]; Day 29, listed as Cmpd 1",−0.59
same,LSMean difference vs placebo in change from baseline in TETRAS performance subscale part 4/6/7/8 total score,[1]; Day 42,1.96
same,Model-based LSMean (SE) change from baseline in TETRAS performance subscale part 4/6/7/8 total score,[1]; Day 42,−1.17 (0.673)
same,LSMean (SE) CFB in TETRAS ADL total score,[2]; [3],−2.84
same,LSMean Difference (CI) vs placebo in CFB in TETRAS ADL total score,[2]; [3],−1.17
same,Mean (SD) % CFB in TETRAS ADL total score,[2]; [3],−16.52%
same,LSMean (SE) CFB in TETRAS ADL total score,[2]; [4],−5.67
same,Mean (SD) % CFB in TETRAS ADL total score,[2]; [4],−18.10%
same,Model-based LSMean (SE) change from baseline in TETRAS ADL total score,"[2]; Full Analysis Set, Day 8",−5.34 (0.845)
same,LSMean difference vs placebo in change from baseline in TETRAS ADL total score,"[2]; Full Analysis Set, Day 15",−2.95
same,Model-based LSMean (SE) change from baseline in TETRAS ADL total score,"[2]; Full Analysis Set, Day 15",−5.43 (0.945)
same,LSMean difference vs placebo in change from baseline in TETRAS ADL total score,"[2]; Full Analysis Set, Day 22",−2.56
same,Model-based LSMean (SE) change from baseline in TETRAS ADL total score,"[2]; Full Analysis Set, Day 22",−5.24 (0.904)
same,Mean (SD) % CFB in TETRAS ADL total score,"[2]; Full Analysis Set, Day 29",−17.4%
same,Model-based LSMean (SE) change from baseline in TETRAS ADL total score,"[2]; Full Analysis Set, Day 29",−4.24 (0.940)
same,LSMean difference vs placebo in change from baseline in TETRAS ADL total score,"[2]; Full Analysis Set, Day 29, listed as Cmpd 1",−1.37
same,LSMean difference vs placebo in change from baseline in TETRAS ADL total score,"[2]; Full Analysis Set, Day 42",1.13
same,Model-based LSMean (SE) change from baseline in TETRAS ADL total score,"[2]; Full Analysis Set, Day 42",−2.14 (0.905)
